Results: publication PMC4649711, “In1-ghrelin splicing variant is overexpressed in pituitary adenomas and increases their aggressive features” (Scientific Reports, 2015)
Where “and” joins values, the source holds several entries; their conditions need not be identical. Identical values can stand only once. Entries after “also recorded” stand apart in the source; their conditions may differ.

How the values were obtained:
[1] = test system: GH-omas (tumoral pituitary cells); assay: free cytosolic calcium kinetics ([Ca^2+]i), GH-oma cells; type: cell-based, human
Procedure: (§1) Pituitary adenoma specimens were dispersed into single cells by enzymatic and mechanical disruption and cultured onto tissue culture plates in serum containing medium, as previously described. Briefly, pituitary samples were resected by endoscopic transsphenoidal surgery and transferred to sterile cold (4°C) culture medium (S-MEM, Gibco, Madrid, Spain) supplemented with 0.1% BSA, 0.01% L-glutamine, 1% antibiotic-antimycotic solution, and 2.5% HEPES. Samples were minced under sterile conditions into 1–2 mm^3 pieces. Some pieces were stored at −80°C for posterior RNA isolation and, when possible, the remaining tissue samples were washed and incubated in 30 mL S-MEM medium supplemented 0.3% trypsin (Beckson, Dickinson and Company, Sparks, MD, USA) in a spinner flask (Bellco Glass, Vineland, NJ, USA) for 2 h of gentle shaking at 37°C and then, incubation was continued for another 5 min in presence of 1 mg of DNAse I (Roche, Mannheim, Germany). Dispersed cells were decanted by centrifugation and then, by repeated aspiration into a smoothtipped glass Pasteur pipette. […]
(§2) As previously reported, changes in [Ca^2+]i in single cells were measured using fura-2AM (50,000 cells/coverslip; Molecular Probes, Eugene, OR)[23][30]. […] Cells were examined for changes in [Ca^2+]i after the appropriate treatment (native ghrelin, In1-19 or In1-40) using a 40× objective with Immersion Oil Type NF (Nikon, Tokyo, Japan) while exposed to alternating 340–380 nm light beams, and the intensity of light emission at 505 nm was measured every 5 seconds using MetaFluor Software (Imaging Corp., West Chester, PA, USA). […] Changes in [Ca^2+]i in CHO-K1 cell line expressing recombinant GHSR1a or GHSR1b receptor were measured using Calcium 4 Explorer Kit (Molecular Devices, Sunnyvale, CA, USA). […] Fluorescent signals were then monitored using the FLIPR Tetra (Molecular Devices, Sunnyvale, CA, USA) during which cells were stimulated with compounds. Dose-response curves were analyzed using GraphPad Prism v5.04 (La Jolla, CA, USA).

[2] = test system: NFPA (tumoral pituitary cells); assay: free cytosolic calcium kinetics ([Ca^2+]i), NFPA cells; type: cell-based, human
Procedure: as §1, §2

[3] = test system: PRL-omas (tumoral pituitary cells); assay: free cytosolic calcium kinetics ([Ca^2+]i), PRL-oma cells; type: cell-based, human; conditions: fura-2AM
Procedure: Pituitary adenoma specimens were dispersed into single cells by enzymatic and mechanical disruption and cultured onto tissue culture plates in serum containing medium, as previously described. Briefly, pituitary samples were resected by endoscopic transsphenoidal surgery and transferred to sterile cold (4°C) culture medium (S-MEM, Gibco, Madrid, Spain) supplemented with 0.1% BSA, 0.01% L-glutamine, 1% antibiotic-antimycotic solution, and 2.5% HEPES. Samples were minced under sterile conditions into 1–2 mm^3 pieces. […]
as §2, with “Dose-response curves were analyzed using GraphPad Prism v5.04 (La Jolla, CA, USA).” left out

GH-omas [4] = assay: cell viability of GH-oma primary cultures, peptide treatment; type: cell-based, human; conditions: 100 nM, alamar-blue
Procedure: Pituitary adenoma specimens were dispersed into single cells by enzymatic and mechanical disruption and cultured onto tissue culture plates in serum containing medium, as previously described. Briefly, pituitary samples were resected by endoscopic transsphenoidal surgery and transferred to sterile cold (4°C) culture medium (S-MEM, Gibco, Madrid, Spain) supplemented with 0.1% BSA, 0.01% L-glutamine, 1% antibiotic-antimycotic solution, and 2.5% HEPES. Samples were minced under sterile conditions into 1–2 mm^3 pieces. Some pieces were stored at −80°C for posterior RNA isolation and, when possible, the remaining tissue samples were washed and incubated in 30 mL S-MEM medium supplemented 0.3% trypsin (Beckson, Dickinson and Company, Sparks, MD, USA) in a spinner flask (Bellco Glass, Vineland, NJ, USA) for 2 h of gentle shaking at 37°C and then, incubation was continued for another 5 min in presence of 1 mg of DNAse I (Roche, Mannheim, Germany). Dispersed cells were decanted by centrifugation and then, by repeated aspiration into a smoothtipped glass Pasteur pipette. Cells suspensions were washed once in 4.5 g/L glucose containing DMEM medium (Gibco, Madrid, Spain) supplemented with 0.1% BSA, 0.01% L-glutamine, 1% antibiotic-antimycotic solution, and 2.5% HEPES. Cell number and viability was estimated by the Trypan blue exclusion test in Neubauer chamber, where viability was always 90–100%.
As previously reported, cell viability was estimated using alamar-blue reagent (10,000 cells/well-plate; Biosource International, Camarillo, CA, USA)[30][50][52]. Briefly, cells were serum-starved for 12–16 h before the measurements and treated with serum-free medium containing 10% alamar-blue for 3 h. Reduction of alamar-blue reagent was quantified exciting at 560 nm and reading at 590 nm using the FlexStation III system (Molecular Devices, Sunnyvale, CA, USA). Subsequently, media was replaced by serum-containing alamar-blue free medium and incubated for additional 24–72 h, measuring the alamar-blue reduction every 24 h. […]

GH-omas [5] = assay: apoptotic rate in GH-omas; type: cell-based, human; conditions: 100 nM, 12–14 h, Annexin V/Propidium Iodide, flow cytometry, n = 3
Procedure: as §1, with “pipette. Cells suspensions were washed once in 4.5 g/L glucose containing DMEM medium (Gibco, Madrid, Spain) supplemented with 0.1% BSA, 0.01% L-glutamine, 1% antibiotic-antimycotic solution, and 2.5% HEPES.” for “pipette.”

PRL-omas = conditions: previous studies; cited from earlier work
Source text: Conversely, In1-ghrelin peptides only elicited [Ca^2+]i responses in a negligible percentage of PRL-oma cells, which is in accordance with the lack of effect of these peptides in the modulation of PRL release. However, In1-40 but not In1-19 p ...

## CCCCCCCC(=O)OC[C@H](NC(=O)[C@H](CO)NC(=O)CN)C(=O)N[C@@H](Cc1ccccc1)C(=O)N[C@@H](CC(C)C)C(=O)N[C@@H](CO)C(=O)N1CCC[C@H]1C(=O)N[C@@H](CCC(=O)O)C(=O)N[C@@H](Cc1c[nH]cn1)C(=O)N[C@@H](CCC(N)=O)C(=O)N[C@@H](CCCNC(=N)N)C(=O)N[C@H](C(=O)N[C@@H](CCC(N)=O)C(=O)N[C@@H](CCC(N)=O)C(=O)N[C@@H](CCCNC(=N)N)C(=O)N[C@@H](CCCCN)C(=O)N[C@@H](CCC(=O)O)C(=O)N[C@@H](CO)C(=O)N[C@@H](CCCCN)C(=O)N[C@@H](CCCCN)C(=O)N1CCC[C@H]1C(=O)N1CCC[C@H]1C(=O)N[C@@H](C)C(=O)N[C@@H](CCCCN)C(=O)N[C@@H](CC(C)C)C(=O)N[C@@H](CCC(N)=O)C(=O)N1CCC[C@H]1C(=O)N[C@@H](CCCNC(=N)N)C(=O)O)C(C)C [AG]
[1]; fura-2AM
  [Ca^2+]i response (in words): doubling the [Ca^2+]i levels; also recorded: increased [Ca^2+]i
[1]; proportion of responsive cells, fura-2AM single-cell imaging
  % cell resp.: 74%
[1]; responsive/tested samples, fura-2AM single-cell imaging, 1500 / 983 / 520 cells analyzed for AG / In1-19 / In1-40, peptides 100 nM (abstract)
  # samples: 27/27
[2]; NFPA, proportion of responsive cells, fura-2AM single-cell imaging
  % cell resp.: 29% and 29.4%
[2]; NFPA, responsive/tested samples, fura-2AM, 408 / 367 / 29 cells analyzed for AG / In1-19 / In1-40, peptides 100 nM (abstract)
  # samples: 9/15
[2]; NFPAs, fura-2AM
  [Ca^2+]i response (in words): a subset of NFPA cells is responsive
[3]
  [Ca^2+]i response (in words): only a low proportion of these pituitary adenoma cells altered their [Ca^2+]i
[3]; responsive/tested samples, 217 / 160 / 88 cells analyzed for AG / In1-19 / In1-40, peptides 100 nM (abstract)
  # samples: 2/6
GH-omas [4]; 48 h, n = 5–17
  cell viability: significantly increased
GH-omas [4]; 72 h, n = 5–17
  cell viability: significantly increased
GH-omas [4]; time not given
  cell viability: modestly increased GH-oma cell viability
GH-omas [5]
  apoptotic rate: did not alter apoptotic rate
PRL-omas
  PRL secretion: increases PRL secretion
